The results in this text go back to ChEMBL document CHEMBL1177822, “Synthesis and anti-HIV activity of 2'-deoxy-2'-fluoro-4'-C-ethynyl nucleoside analogs” (Bioorg Med Chem Lett, 2010).

Structures are written as SMILES.

A word on the IC50: it is the concentration that inhibits the measured activity by half. A word on the CC50: it is the concentration at which the toxic effect on the cells reaches its halfway point. Read a low CC50 as greater toxicity to the cells.

Data set [1] concerns Human immunodeficiency virus 1. Put plainly: Antiviral activity against HIV1 bearing VSV glycoprotein infected in human MT2 cells assessed as inhibition of viral replication after 48 hrs by luciferase reporter gene assay. The format is functional, organism-based. The note with it: Human immunodeficiency virus 1, MT2, 48 h. (Reporter assays use an easily measured gene product as a stand-in for the process of interest.)

The subject of data set [2] is Human immunodeficiency virus 1. Put plainly: Ratio of compound IC50 to 1-(20-deoxy-40-C-ethynyl-beta-D-arabinofuranosyl)-thymine IC50 for HIV1 bearing VSV glycoprotein infected in human MT2 cells assessed as inhibition of viral replication after 48 hrs by luciferase reporter gene assay. Type of data set: functional.
Data set [3] in a line: Cytotoxicity against human MT2 cells by MTT assay. The format is cell-based.
For data set [4], the system named is Human immunodeficiency virus 1. Put plainly: Ratio of compound IC50 to zidovudine IC50 for HIV1 bearing VSV glycoprotein infected in human MT2 cells assessed as inhibition of viral replication after 48 hrs by luciferase reporter gene assay. The format is functional.
The subject of data set [5] is Human immunodeficiency virus 1. Kind of data set: Antiviral activity against HIV1 NL4-3 with reverse transcriptase K101E mutant infected in human TZM-bl cells assessed as inhibition of viral replication after 4 days by p24 based ELISA. The following applies: Human immunodeficiency virus 1, NL4-3, TZM-bl, 96 h. The format is functional, organism-based.
Data set [6] deals with Human immunodeficiency virus 1. Put plainly: Antiviral activity against wild type HIV1 NL4-3 infected in human TZM-bl cells assessed as inhibition of viral replication after 4 days by p24 based ELISA. The following applies: Human immunodeficiency virus 1, NL4-3, TZM-bl, 96 h. The format is functional, organism-based. A general note: An ELISA detects its analyte on a solid surface through an enzyme-linked reagent.

The subject of data set [7] is Human immunodeficiency virus 1. Kind of data set: Antiviral activity against reverse transcriptase multidrug-resistant HIV1 infected in human TZM-bl cells assessed as inhibition of viral replication after 4 days by p24 based ELISA. The format is functional, organism-based. The note with it: Human immunodeficiency virus 1, TZM-bl, 96 h.

With `C#C[C@]1(CO)O[C@@H](n2cc(C)c(=O)[nH]c2=O)[C@@H](F)[C@@H]1O`, in data set [1], the IC50 was found to be 86 nM. Moreover, the “Ratio IC50” value in data set [2] worked out at 10. In data set [3], the CC50 is over 10000 nM.
Consider `C#C[C@]1(CO)O[C@@H](n2ccc(=O)[nH]c2=O)[C@@H](F)[C@@H]1O`, for which the 50% inhibitory concentration (IC50) in data set [1] stood at 6530 nM. This compound came in with a CC50 in data set [3] of over 10000 nM.
Consider `C#C[C@]1(CO)O[C@@H](n2ccc(N)nc2=O)[C@@H](F)[C@@H]1O`, for which the “Ratio IC50” value in data set [4] is listed as 35. Besides, the IC50 stood at 1.52 nM in data set [5], 0.46 nM in data set [6], 1.45 nM in data set [7] and 1.34 nM in data set [1]. The compound also gave a CC50 in data set [3] of over 10000 nM.
As for `Cc1cn([C@H]2C[C@H](N=[N+]=[N-])[C@@H](CO)O2)c(=O)[nH]c1=O` [ZIDOVUDINE], in data set [1], the IC50 was 47 nM. In addition, the CC50 in data set [3] was over 200000 nM.
